Experimental data as given in the supplement of paper PMC8617591.

Legend:
[1] = test system: Mycobacterium tuberculosis Erdman (autoluminescent); assay: AUC25, normalised area under dose response up to IC25 (fraction (0-1)); higher = more potent at low dose
Method: (§1)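 DiaMOND dose responses (10 doses, 1.5- or 2-fold spacing, equipotent around IC90) of autoluminescent M. tuberculosis Erdman in 8 in vitro models. Read-out is OD600, or luminescence for the intracellular (J774) and dormancy models, background-subtracted and normalised to untreated wells. A 3-parameter Hill fit gives Einf and AUC25 (area to IC25 normalised by IC25); GRinf comes from a Hill fit of the Hafner normalised growth rate. Biological replicates passing QC are averaged. Single drugs only.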

[2] = test system: Mycobacterium tuberculosis Erdman (autoluminescent); assay: Einf, fitted maximum growth inhibition (fraction); higher = stronger maximal inhibition
Method: as §1

[3] = test system: Mycobacterium tuberculosis Erdman (autoluminescent); assay: GRinf, maximum normalised growth rate inhibition (unitless (-1 to 1)); higher = less effect (negative = killing)
Method: as §1

[4] = in vitro model: acidic pH 5.7, time point: constant (~7 days, model-specific)
[5] = in vitro model: acidic pH 5.7, time point: terminal (~4-5 doublings, model-specific)
[6] = in vitro model: butyrate, time point: constant (~7 days, model-specific)
[7] = in vitro model: butyrate, time point: terminal (~4-5 doublings, model-specific)
[8] = in vitro model: cholesterol 0.05 mM, time point: constant (~7 days, model-specific)
[9] = in vitro model: cholesterol 0.05 mM, time point: terminal (~4-5 doublings, model-specific)
[10] = in vitro model: cholesterol-high 0.2 mM, time point: constant (~7 days, model-specific)
[11] = in vitro model: cholesterol-high 0.2 mM, time point: terminal (~4-5 doublings, model-specific)
[12] = in vitro model: dormancy (butyrate + nitrate, low O2), time point: constant (~7 days, model-specific)
[13] = in vitro model: standard 7H9 glycerol, time point: constant = terminal
[14] = in vitro model: valerate, time point: constant (~7 days, model-specific)
[15] = in vitro model: valerate, time point: terminal (~4-5 doublings, model-specific)
[16] = in vitro model: intracellular J774, time point: constant = terminal
[17] = in vitro model: dormancy (butyrate + nitrate, low O2), time point: terminal (~4-5 doublings, model-specific)

NC(=O)c1cnccn1 [pyrazinamide] was tested, and the AUC25 [1, 4] was 0.12, the AUC25 [1, 5] was 0.124 and the AUC25 [1, 6] was 0.135. The AUC25 [1, 7] was 0.098, the AUC25 [1, 8] was 0.154 and the AUC25 [1, 9] was 0.142. For the same compound, the AUC25 [1, 10] was 0.0952, the AUC25 [1, 11] was 0.0753 and the AUC25 [1, 12] was 0.0813. For the same compound, the AUC25 [1, 13] was 0.104, the AUC25 [1, 14] was 0.0917 and the AUC25 [1, 15] was 0.0645. The Einf [2, 4] was 0.74, the Einf [2, 5] was 0.881 and the Einf [2, 6] was 0.921. For the same compound, the Einf [2, 7] was 0.954, the Einf [2, 8] was 0.394 and the Einf [2, 9] was 0.803. It also gave an Einf [2, 10] of 0.765, an Einf [2, 11] of 0.959 and an Einf [2, 12] of 0.939. It also gave an Einf [2, 16] of 0.977, an Einf [2, 13] of 0.291 and an Einf [2, 14] of 0.8. For the same compound, the Einf [2, 15] was 0.916, the GRinf [3, 4] was -0.0384 and the GRinf [3, 5] was 0.0463. The GRinf [3, 6] was -1, the GRinf [3, 7] was -1 and the GRinf [3, 8] was 0.111. The GRinf [3, 9] was 0.0744, the GRinf [3, 10] was -0.0736 and the GRinf [3, 11] was -0.64. It also gave a GRinf [3, 12] of -0.934, a GRinf [3, 16] of -0.393 and a GRinf [3, 13] of 0.582. For the same compound, the GRinf [3, 14] was -0.597 and the GRinf [3, 15] was -0.749.

CO[C@H]1/C=C/O[C@@]2(C)Oc3c(C)c(O)c4c(O)c(c(/C=N/N5CCN(C)CC5)c(O)c4c3C2=O)NC(=O)/C(C)=C\C=C\[C@H](C)[C@H](O)[C@@H](C)[C@@H](O)[C@@H](C)[C@H](OC(C)=O)[C@@H]1C [rifampicin] was tested, and the AUC25 [1, 4] was 0.0889, the AUC25 [1, 5] was 0.0838 and the AUC25 [1, 6] was 0.112. It also gave an AUC25 [1, 7] of 0.1, an AUC25 [1, 8] of 0.093 and an AUC25 [1, 9] of 0.0796. It also gave an AUC25 [1, 10] of 0.0905, an AUC25 [1, 11] of 0.0772 and an AUC25 [1, 12] of 0.0684. It also gave an AUC25 [1, 17] of 0.0437, an AUC25 [1, 13] of 0.0814 and an AUC25 [1, 14] of 0.0576. For the same compound, the AUC25 [1, 15] was 0.0385, the Einf [2, 4] was 0.838 and the Einf [2, 5] was 0.98. It also gave an Einf [2, 6] of 0.892, an Einf [2, 7] of 0.956 and an Einf [2, 8] of 0.503. It also gave an Einf [2, 9] of 0.855, an Einf [2, 10] of 0.927 and an Einf [2, 11] of 0.999. It also gave an Einf [2, 12] of 0.901, an Einf [2, 17] of 0.978 and an Einf [2, 16] of 0.971. The Einf [2, 13] was 0.877, the Einf [2, 14] was 0.86 and the Einf [2, 15] was 0.943. The GRinf [3, 4] was -0.0959, the GRinf [3, 5] was -0.261 and the GRinf [3, 6] was 0.0824. It also gave a GRinf [3, 7] of 0.0686, a GRinf [3, 8] of 0.296 and a GRinf [3, 9] of -0.0493. For the same compound, the GRinf [3, 10] was -0.416, the GRinf [3, 11] was -0.773 and the GRinf [3, 12] was 0.176. It also gave a GRinf [3, 17] of -0.0601, a GRinf [3, 16] of -0.261 and a GRinf [3, 13] of 0.161. For the same compound, the GRinf [3, 14] was 0.0731 and the GRinf [3, 15] was 0.0202.

CC(C)/N=c1\cc2n(-c3ccc(Cl)cc3)c3ccccc3nc-2cc1Nc1ccc(Cl)cc1 [clofazimine] gave an AUC25 [1, 4] of 0.0949, an AUC25 [1, 5] of 0.0888 and an AUC25 [1, 6] of 0.0887. For the same compound, the AUC25 [1, 7] was 0.0859, the AUC25 [1, 8] was 0.129 and the AUC25 [1, 9] was 0.13. The AUC25 [1, 10] was 0.12, the AUC25 [1, 11] was 0.114 and the AUC25 [1, 12] was 0.115. For the same compound, the AUC25 [1, 17] was 0.0838, the AUC25 [1, 13] was 0.113 and the AUC25 [1, 14] was 0.155. The AUC25 [1, 15] was 0.0638, the Einf [2, 4] was 0.748 and the Einf [2, 5] was 0.966. The Einf [2, 6] was 0.963, the Einf [2, 7] was 0.989 and the Einf [2, 8] was 0.527. For the same compound, the Einf [2, 9] was 0.844, the Einf [2, 10] was 0.938 and the Einf [2, 11] was 1. It also gave an Einf [2, 12] of 0.876, an Einf [2, 17] of 0.922 and an Einf [2, 16] of 0.997. The Einf [2, 13] was 0.965, the Einf [2, 14] was 0.88 and the Einf [2, 15] was 0.895. The GRinf [3, 4] was 0.0361, the GRinf [3, 5] was -0.229 and the GRinf [3, 6] was -0.0183. It also gave a GRinf [3, 7] of -0.0492, a GRinf [3, 8] of 0.329 and a GRinf [3, 9] of 0.0361. The GRinf [3, 10] was -0.473, the GRinf [3, 11] was -0.945 and the GRinf [3, 12] was 0.339. For the same compound, the GRinf [3, 17] was -0.0947, the GRinf [3, 16] was -0.696 and the GRinf [3, 13] was -0.0492. The GRinf [3, 14] was -0.412 and the GRinf [3, 15] was 0.239.

COc1c(N2C[C@@H]3CCCN[C@@H]3C2)c(F)cc2c(=O)c(C(=O)O)cn(C3CC3)c12 [moxifloxacin] gave an AUC25 [1, 4] of 0.122, an AUC25 [1, 5] of 0.0782 and an AUC25 [1, 6] of 0.0832. It also gave an AUC25 [1, 7] of 0.0522, an AUC25 [1, 8] of 0.116 and an AUC25 [1, 9] of 0.0909. The AUC25 [1, 10] was 0.0781, the AUC25 [1, 11] was 0.0751 and the AUC25 [1, 12] was 0.0904. The AUC25 [1, 17] was 0.0579, the AUC25 [1, 13] was 0.0856 and the AUC25 [1, 14] was 0.105. The AUC25 [1, 15] was 0.0529, the Einf [2, 4] was 0.749 and the Einf [2, 5] was 0.96. It also gave an Einf [2, 6] of 0.908, an Einf [2, 7] of 0.957 and an Einf [2, 8] of 0.629. For the same compound, the Einf [2, 9] was 0.881, the Einf [2, 10] was 0.824 and the Einf [2, 11] was 1. For the same compound, the Einf [2, 12] was 0.927, the Einf [2, 17] was 0.974 and the Einf [2, 16] was 0.957. For the same compound, the Einf [2, 13] was 0.913, the Einf [2, 14] was 0.878 and the Einf [2, 15] was 0.936. For the same compound, the GRinf [3, 4] was -0.192, the GRinf [3, 5] was -0.226 and the GRinf [3, 6] was 0.0408. The GRinf [3, 7] was 0.0197, the GRinf [3, 8] was -0.0568 and the GRinf [3, 9] was -0.0841. It also gave a GRinf [3, 10] of -0.195, a GRinf [3, 11] of -0.609 and a GRinf [3, 12] of 0.0805. It also gave a GRinf [3, 17] of -0.132, a GRinf [3, 16] of -0.212 and a GRinf [3, 13] of 0.00369. For the same compound, the GRinf [3, 14] was -0.00227 and the GRinf [3, 15] was 0.0339.

CC(=O)NC[C@H]1CN(c2ccc(N3CCOCC3)c(F)c2)C(=O)O1 [linezolid] gave an AUC25 [1, 4] of 0.105, an AUC25 [1, 5] of 0.086 and an AUC25 [1, 6] of 0.0921. It also gave an AUC25 [1, 7] of 0.0673, an AUC25 [1, 8] of 0.152 and an AUC25 [1, 9] of 0.152. The AUC25 [1, 10] was 0.119, the AUC25 [1, 11] was 0.117 and the AUC25 [1, 12] was 0.0427. The AUC25 [1, 17] was 0.0425, the AUC25 [1, 13] was 0.0679 and the AUC25 [1, 14] was 0.106. It also gave an AUC25 [1, 15] of 0.0701, an Einf [2, 4] of 0.813 and an Einf [2, 5] of 0.966. The Einf [2, 6] was 0.894, the Einf [2, 7] was 0.941 and the Einf [2, 8] was 0.692. The Einf [2, 9] was 0.927, the Einf [2, 10] was 0.967 and the Einf [2, 11] was 1. For the same compound, the Einf [2, 12] was 0.907, the Einf [2, 17] was 0.989 and the Einf [2, 16] was 0.947. For the same compound, the Einf [2, 13] was 0.904, the Einf [2, 14] was 0.912 and the Einf [2, 15] was 0.948. It also gave a GRinf [3, 4] of -0.255, a GRinf [3, 5] of -0.214 and a GRinf [3, 6] of 0.0641. The GRinf [3, 7] was 0.0625, the GRinf [3, 8] was -0.0397 and the GRinf [3, 9] was -0.195. For the same compound, the GRinf [3, 10] was -0.633, the GRinf [3, 11] was -0.803 and the GRinf [3, 12] was 0.164. The GRinf [3, 17] was -0.0469, the GRinf [3, 16] was -0.297 and the GRinf [3, 13] was 0.0704. The GRinf [3, 14] was -0.0706 and the GRinf [3, 15] was -0.0311.
